From patent US5276205A, “Insecticides” (ICI Americas Inc., priority 1989, dated 1994)

Key:
Assay type in all cases: in vivo
[1] = system: Black Bean Aphid [Aphis fabae (Scop.)]; test: Black bean aphid insecticidal test (BBA); conditions: percent in sprayed solution; mortality after 48 hours; max. 0.05%
Method: (§1) The compounds in Table 1 above were tested for insecticidal activity using the following testing procedures. LC50 values, based on the results of these tests and calculated according to dosage-mortality curves, are expressed in Table 2.
Black Bean Aphid [Aphis fabae (Scop.)]
Nasturtium plants (Tropaeolum sp.) approximately 5 cm tall, were transplanted into sandy loam soil in small cups and infested with 25-50 black bean aphids of mixed ages. Twenty-four hours later they were sprayed to the point of runoff with 50-50 acetone-water solutions of the test compound. Treated plants were held in the greenhouse and mortality was recorded after 48 hours. Test concentrations ranged from 0.05% downward. The LC-50 value is expressed below in Table 2 under the heading "BBA" in terms of percent of the test compound in the sprayed solution.

[2] = system: Western Spotted Cucumber Beetle Larvae [Diabrotica undecimpunctata (Mannherheim)]; test: Western spotted cucumber beetle larvae soil test (Diab); conditions: ppm in soil; max. 25 ppm
Method: as §1
Western Spotted Cucumber Beetle Larvae [Diabrotica undecimpunctata (Mannherheim)]
Ten grams of moist potting soil was placed in a plastic cup. The test compound was dissolved in acetone. A 0.05 ml aliquot of the test sample, diluted to the desired concentration, was added to the soil. The cup was capped and the soil was mixed on a vortex mixer for approximately 15 seconds. An indentation was made on the surface of the soil and approximately 50 Diabrotica eggs were added. The eggs were covered with soil and maintained at room temperature (approximately 70° F. or 21° C.). Four days later a section of Romaine lettuce (Latuca sativa) leaf was placed in the treated cups. One week later the cups were examined for live larvae. Test concentrations ranged from 25 ppm downward. The LC-50 value is expressed below in Table 2 under the heading "Diab" in terms of ppm of the test compound in the soil.

[3] = system: Housefly [Musca domestica]; test: Housefly insecticidal test (HF); conditions: μg of test compound per 25 female flies; mortality after 48 hours; max. test level 100 μg
Method: as §1
Housefly [Musca domestica]
The test compound was diluted in acetone and aliquots pipetted onto the bottom of aluminum dishes. To ensure even spreading of the chemical on the bottom of the dishes, 1 ml of acetone containing 0.01% peanut oil was also added to each dish. After all solvents had evaporated, the dishes were placed in circular cardboard cages containing 25 female houseflies, 1-2 days old. The cages were covered on the bottom with cellophane and on the top with tulle netting, and each contained a sugar-water saturated cotton plug for maintenance of the flies. Mortality was recorded after 48 hours. Test levels ranged from 100 μg/25 female houseflies downward. The LC-50 value is expressed below in Table 2 under the heading "HF", in terms of μg of the test compound per 25 female flies.

[4] = system: two-spotted mite [Tetranychus urticae (Koch)], adults; test: Two-spotted mite acaricidal test, adults (2SM-A); conditions: percent in dip solution, mortality after 5-7 days, max. 0.05%
Text: (§2) Acaricidal Evaluation Test
(§3) The two-spotted mite (2SM) [Tetranychus urticae (Koch)] was employed in tests for miticides. The test procedure was as follows:
(§4) Pinto bean plants (Phaseolus sp.), approximately 10 cm tall, were transplanted into sandy loam soil in small cups and thoroughly infested with two-spotted mites of mixed ages and sexes. Twenty-four hours later the infested plants were inverted and dipped for 2-3 seconds in 50-50 acetone-water solutions of the test compound. Treated plants were held in the greenhouse, and 5-7 days later mortality was determined for both adult mites and the nymphs hatching from eggs which were on the plants at the time of treatment. Test concentrations ranged from 0.05% downward. The LC-50 value is expressed below in Table 2 under the headings "2SM-A" (i.e., adults) and "2SM-E" (i.e. eggs) in terms of percent concentration of the test compound in the solution.

[5] = system: Cabbage Looper [Trichoplusia ni (Hubner)]; test: Cabbage looper insecticidal test (CL); conditions: second-instar larvae; percent in solution; mortality 3-5 days later; max. 0.1%
Method: as §1
Cabbage Looper [Trichoplusia ni (Hubner)]
The test compound was diluted in a 50-50 acetone-water solution. Cotyledons of hyzini squash (Calabacita abobrinha), approximately 1×1.5 inches, were immersed in the test solutions for 2-3 seconds and placed on a wire screen to dry. The dried leaves were placed in petri dishes containing a moistened piece of filter paper and infested with 5 second-instar cabbage looper larvae. The dishes were placed in a high humidity chamber. Mortality of the larvae was recorded 3-5 days later. Test concentrations ranged from 0.1% downward. The LC-50 value is expressed below in Table 2 under the heading "CL" in terms of percent of the test compound in solution.

[6] = system: Tobacco Budworm [Heliothis virescens (Fabricius)], eggs; test: Tobacco budworm egg test (TBW-E); conditions: 2-day old eggs dipped; percent in acetone solution; max. 0.1%
Method: The compounds in Table 1 above were tested for insecticidal activity using the following testing procedures.
Tobacco Budworm [Heliothis virescens (Fabricius)]
Eggs: Paper towel patches of 2-day old eggs of the tobacco budworm were dipped in acetone solutions of the test compound and placed in petri dishes containing a portion of larval rearing medium. […] Test concentrations ranged from 0.1% downward. The LC-50 value is expressed below in Table 2 under the heading "TBW-E" in terms of percent of the test compound in the solution.

[7] = system: two-spotted mite [Tetranychus urticae (Koch)], eggs; test: Two-spotted mite acaricidal test, eggs (2SM-E); conditions: percent in dip solution, mortality after 5-7 days, max. 0.05%
Text: as §2, §3, §4

CC(C)C(O)(CCc1cccc(Oc2ccccc2)c1)Cc1ccc(Cl)cc1 (centres unmarked) [Compound 1, 1-(4-chlorophenyl)-2-isopropyl-4-(3-phenoxyphenyl)-2-butanol]
LC50 BBA [1]: 0.05% | LC50 Diab. [2]: > 25 ppm (soil) | LC50 HF [3]: > 100 µg | LC50 2-SM A [4]: > 0.05% | LC50 CL [5]: 0.015% | LC50 TBW E [6]: > 0.1% | LC50 2-SM E [7]: > 0.05%

Cc1ccc(CC(O)(CCc2cccc(Oc3ccccc3)c2)C(C)C)cc1 (centres unmarked) [Compound 2]
LC50 BBA [1]: 0.05% | LC50 Diab. [2]: > 25 ppm (soil) | LC50 HF [3]: > 100 µg | LC50 2-SM A [4]: > 0.05% | LC50 CL [5]: 0.016% | LC50 TBW E [6]: > 0.1% | LC50 2-SM E [7]: > 0.05%

OC(CCc1cccc(Oc2ccccc2)c1)(Cc1ccc(Cl)cc1)C1CC1 (centres unmarked) [Compound 3]
LC50 BBA [1]: > 0.05% | LC50 Diab. [2]: > 25 ppm (soil) | LC50 HF [3]: > 100 µg | LC50 2-SM A [4]: > 0.05% | LC50 CL [5]: 0.025% | LC50 TBW E [6]: > 0.1% | LC50 2-SM E [7]: > 0.05%

OC(CCc1cccc(Oc2ccccc2)c1)(Cc1cccc(Cl)c1)C1CC1 (centres unmarked) [Compound 4]
LC50 BBA [1]: > 0.05% | LC50 Diab. [2]: > 25 ppm (soil) | LC50 HF [3]: > 100 µg | LC50 2-SM A [4]: > 0.05% | LC50 CL [5]: 0.035% | LC50 TBW E [6]: > 0.1% | LC50 2-SM E [7]: > 0.05%

CC(C)C(O)(CCc1cccc(Oc2ccccc2)c1)Cc1cccc(Cl)c1 (centres unmarked) [Compound 5]
LC50 BBA [1]: 0.05% | LC50 Diab. [2]: > 25 ppm (soil) | LC50 HF [3]: 84 µg | LC50 2-SM A [4]: > 0.05% | LC50 CL [5]: 0.008% | LC50 TBW E [6]: > 0.1% | LC50 2-SM E [7]: > 0.05%
